# Experimental data taken from patent publication US20240423961A1, “1H-1,2,3-TRIAZOLE-4-CARBOXYLIC ACIDS FOR TREATMENT OF HYPEROXALURIA AND KIDNEY STONES” (CANTERO THERAPEUTICS, INC., priority 2021, published 2024).
# Where two headings read alike, the source gives them in different places.
# Assay: Phase 1 SAD/MAD study: plasma pharmacokinetics of Compound 1a (LC-MS-MS, noncompartmental analysis)
# Format: in vivo, human
# Settings: human, plasma, oral; for half-life: read-out: t1/2 (converted); for Cmax at 7 days: read-out: Day 7 Cmax; for Tmax at 7 days: read-out: Day 7 Tmax
# Procedure: Pharmacokinetics: Human K2-ethylenediaminetetraacetic acid (K2-EDTA) plasma samples were analyzed for Compound 1a by a validated method over a range of 1.0 to 1000 ng/mL based on the analysis of 100 μL of sample. Human plasma containing Compound 1a and the internal standard, Compound 1a-D4, was extracted using liquid-liquid extraction and analyzed by a Sciex API 4000 LC-MS-MS equipped with an HPLC column. The peak area of the m/z 370.2→298.0 Compound 1a product ion was measured against the peak area of the m/z 374.3→302.4 Compound 1a-D4 internal standard product ion. Quantitation was performed using a weighted 1/x^2 linear least squares regression analysis generated from calibration standards prepared on the day of extraction.
# Pharmacokinetic analysis: Pharmacokinetic calculations based on Compound 1a plasma concentrations were performed using noncompartmental analysis in Phoenix WinNonlin (Certara, Princeton, New Jersey). […] Accumulation ratio based on Cmax was calculated as (Cmax,day 7)/(Cmax, day 1).
# Subject disposition: Six cohorts of 6 to 8 subjects each (N=up to 48) were administered single doses of 40, 120, 360, 1,000, 2,000, and 3,000 mg of Compound 1a in Part A under fasting conditions. Following a 2-week washout, subjects in the 1,000 mg cohort were administered a second 1,000 mg single dose following a high-fat breakfast. Six cohorts of 8 healthy subjects each were administered multiple doses of 75 mg […] (qd), 125 mg every 12 hours (q12 h), 500 mg q12 h, 500 mg qd, 750 mg qd, and 1,000 mg qd for 7 days in the MAD Part B (FIG. 1).
# [1] = 75 mg, MAD 75 mg qd for 7 days, average
# [2] = 125 mg, MAD 125 mg q12h for 7 days, average
# [3] = 500 mg, MAD 500 mg q12h for 7 days, average
# [4] = 500 mg, MAD 500 mg qd for 7 days, average
# [5] = 750 mg, MAD 750 mg qd for 7 days, average
# [6] = 1000 mg, MAD 1000 mg qd for 7 days, average
smiles,measurement,setting,value
"O.O=C([O-])c1nn[nH]c1Oc1ccc(-c2ccc(C3CC(F)(F)C3)cc2)cc1.[Na+] [Compound 1a, sodium 5-((4′-(3,3-difluorocyclobutyl)-[1,1′-biphenyl]-4-yl)oxy)-1H-1,2,3-triazole-4-carboxylate monohydrate]",Cmax,"40 mg, single dose 40 mg, healthy volunteers, geometric mean",2040 ng/mL
same,Tmax,"40 mg, single dose 40 mg, healthy volunteers, geometric mean (geometric CV %), read-out: Tmax",1.9 h
same,half-life,"40 mg, single dose 40 mg, healthy volunteers, geometric mean (geometric CV %)",1500 min
same,AUC(0-t),"40 mg, single dose 40 mg, healthy volunteers, geometric mean, read-out: AUClast",13.9 µg·h/mL
same,AUC(0-t),"75 mg, MAD 75 mg qd for 7 days, average, read-out: Day 7 AUC0-24",23.9 µg·h/mL
same,Cmax at 7 days,[1],3420 ng/mL
same,Tmax at 7 days,[1],2.45 h
same,Cmax,"120 mg, single dose 120 mg, healthy volunteers, geometric mean",5020 ng/mL
same,Tmax,"120 mg, single dose 120 mg, healthy volunteers, geometric mean (geometric CV %), read-out: Tmax",2.3 h
same,half-life,"120 mg, single dose 120 mg, healthy volunteers, geometric mean (geometric CV %)",1320 min
same,AUC(0-t),"120 mg, single dose 120 mg, healthy volunteers, geometric mean, read-out: AUClast",41 µg·h/mL
same,AUC(0-t),"125 mg, MAD 125 mg q12h for 7 days, average, read-out: Day 7 AUC0-12",45.6 µg·h/mL
same,Cmax at 7 days,[2],6450 ng/mL
same,Tmax at 7 days,[2],2.04 h
same,Cmax,"360 mg, single dose 360 mg, healthy volunteers, geometric mean",10500 ng/mL
same,Tmax,"360 mg, single dose 360 mg, healthy volunteers, geometric mean (geometric CV %), read-out: Tmax",2.3 h
same,half-life,"360 mg, single dose 360 mg, healthy volunteers, geometric mean (geometric CV %)",1560 min
same,AUC(0-t),"360 mg, single dose 360 mg, healthy volunteers, geometric mean, read-out: AUClast",83.2 µg·h/mL
same,AUC(0-t),"500 mg, MAD 500 mg q12h for 7 days, average, read-out: Day 7 AUC0-12",342 µg·h/mL
same,Cmax at 7 days,[3],43800 ng/mL
same,Tmax at 7 days,[3],1.44 h
same,AUC(0-t),"500 mg, MAD 500 mg qd for 7 days, average, read-out: Day 7 AUC0-24",133 µg·h/mL
same,Cmax at 7 days,[4],17000 ng/mL
same,Tmax at 7 days,[4],2.35 h
same,AUC(0-t),"750 mg, MAD 750 mg qd for 7 days, average, read-out: Day 7 AUC0-24",214 µg·h/mL
same,Cmax at 7 days,[5],24300 ng/mL
same,Tmax at 7 days,[5],2.62 h
same,AUC(0-t),"1000 mg, MAD 1000 mg qd for 7 days, average, read-out: Day 7 AUC0-24",303 µg·h/mL
same,Cmax at 7 days,[6],29900 ng/mL
same,Tmax at 7 days,[6],2.18 h
same,Cmax,"1000 mg, single dose 1000 mg, healthy volunteers, geometric mean",17200 ng/mL
same,Tmax,"1000 mg, single dose 1000 mg, healthy volunteers, geometric mean (geometric CV %), read-out: Tmax",2.5 h
same,half-life,"1000 mg, single dose 1000 mg, healthy volunteers, geometric mean (geometric CV %)",1680 min
same,AUC(0-t),"1000 mg, single dose 1000 mg, healthy volunteers, geometric mean, read-out: AUClast",184 µg·h/mL
same,Tmax,"1000 mg, single dose of 1,000 mg, fasted, read-out: average Tmax",3 h
same,half-life,"1000 mg, single dose of 1,000 mg, fasted",~1610 min
same,Tmax,"1000 mg, single dose of 1,000 mg, fed, read-out: average Tmax",5.9 h
same,half-life,"1000 mg, single dose of 1,000 mg, fed",~1510 min
same,Cmax,"2000 mg, single dose 2000 mg, healthy volunteers, geometric mean",25600 ng/mL
same,Tmax,"2000 mg, single dose 2000 mg, healthy volunteers, geometric mean (geometric CV %), read-out: Tmax",2.9 h
same,half-life,"2000 mg, single dose 2000 mg, healthy volunteers, geometric mean (geometric CV %)",1380 min
same,AUC(0-t),"2000 mg, single dose 2000 mg, healthy volunteers, geometric mean, read-out: AUClast",312 µg·h/mL
